Experimental data published in publication PMC12684298, “The Parkinson's Disease Drug Tolcapone and Analogues are Potent Glycomimetic Lectin Inhibitors of Pseudomonas aeruginosa LecA” (Angewandte Chemie (International Ed. in English), 2025).

Target: T1, LecA (Pseudomonas aeruginosa, UniProt Q05097)
T1 construct: made in house; host or cells: E. coli BL21 (DE3), plasmid pET25pa11
Experiment: biochemical
Assay type: binding
Method: Therefore, we focused our attention on commercially available nitro‐catechols. Prominent derivatives are inhibitors of the enzyme catechol‐O‐methyltransferase (COMT) and approved drugs for the treatment of Parkinson's disease. Four commercial COMT inhibitors were thus evaluated in a previously reported competitive binding assay based on fluorescence polarisation (FP, Table 1, Figure 1).^[ [32] ^]
The competitive binding assay was performed in analogy to Joachim et al.^[2] 10 µL of a solution containing LecA (40 µM) and sulfo-Cy5-Gal (20 nM, synthesis described in Kuhaudomlarp, Siebs et al.^[5]) in TBS/Ca buffer (20 mM Tris, 147 mM NaCl, 2.6 mM KCl at pH 7.4 supplemented with 1 mM CaCl2) were distributed in into wells of a black 384-well microtiter plate (Greiner Bio-One, Germany, cat no 781900). Then, 10 µL of serial dilutions of compounds (3 mM to 1.5 µM, dilution factor 0.5) in TBS/Ca with 40% DMSO were added in technical triplicates. Final concentrations after mixing were the following: 1.5 mM – 0.73 µM compound, 20 µM LecA, 10 nM sulfo-Cy5-Gal and 20% DMSO. The plate was sealed (EASYseal, Greiner Bio-One, cat no 676001), briefly centrifuged and incubated at room temperature in the dark under shaking conditions. Fluorescence intensity was measured after 1 h and 4 h using a PheraStar FS plate reader (BMG Labtech GmbH, Germany) with spectral filters for excitation at 590 nm and emission at 675 nm and polarization was calculated after blank values of 20 µM LecA in TBS/Ca buffer with 20% DMSO were subtracted from the test compounds. The data were analysed using the four-parameter variable slope model of the MARS Data Analysis software. The top and bottom plateau were assigned based on the control compound methyl α-d-galactoside and the data was reanalysed with these fixed values. If not mentioned otherwise, the experiment was repeated at least three times for each compound and the average and standard deviation are given. In case Triton X-100 was used it was added to the TBS/Ca buffer before the assay.

[1] = IC50, extended dose-response analysis, 20% DMSO, no 2-mercaptoethanol, three experiments
[2] = LecA inhibition, competitive binding assay (FP), tested up to 1.5 mM, n ≥ 2
[3] = IC50 in presence of 0.01% Triton X-100, FP assay, 0.01% Triton X-100, one replicate
[4] = IC50 in presence of 0.057% Triton X-100, FP assay, 0.057% Triton X-100, one replicate

T1 sequence (Q05097 whole entry): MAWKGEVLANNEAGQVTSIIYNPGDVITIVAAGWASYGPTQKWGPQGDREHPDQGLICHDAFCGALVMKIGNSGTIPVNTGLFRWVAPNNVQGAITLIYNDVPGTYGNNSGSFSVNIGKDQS

Row | SMILES | IC50 [1] [µM] | further results
1 | O=[N+]([O-])c1cc(-c2cn3ncsc3n2)cc(O)c1O [RO0199733] | > 1500 | –
2 | Cc1c(C(=O)c2cc(O)c(O)c([N+](=O)[O-])c2)[nH]c2ccccc12 [RO0403335] | 434 | –
3 | O=C(c1ccncc1)c1cc(O)c(O)c([N+](=O)[O-])c1 [RO0403499] | 597 | –
4 | O=C(c1cc(O)c(O)c([N+](=O)[O-])c1)c1ccnc2ccccc12 [RO0405919] | 174 | –
5 | O=C(c1ccc(F)cc1)c1cc(O)c(O)c([N+](=O)[O-])c1 [RO0407028] | 370 | –
6 | O=C(c1cc(O)c(O)c([N+](=O)[O-])c1)c1cncc2ccccc12 [RO0408176] | 449 | –
7 | O=C(c1cccc(F)c1)c1cc(O)c(O)c([N+](=O)[O-])c1 [RO0412713] | 675 | –
8 | Cc1ccccc1C(=O)c1cc(O)c(O)c([N+](=O)[O-])c1 [RO0412734] | 116 | –
9 | O=C(c1cc(O)c(O)c([N+](=O)[O-])c1)c1ccccc1C(F)(F)F [RO0413162] | 128 | –
10 | N#Cc1ccccc1C(=O)c1cc(O)c(O)c([N+](=O)[O-])c1 [RO0413268] | 214 | –
11 | O=C(c1cc(O)c(O)c([N+](=O)[O-])c1)c1ccccc1Cl [RO0413301] | 108 | –
12 | Cc1ccc(C(=O)c2ccc(O)c(O)c2[N+](=O)[O-])cc1 [RO0614977] | 154 | –
13 | CC(C)(C)c1ccc(C(=O)c2cc(O)c(O)c([N+](=O)[O-])c2)cc1 [RO0615662] | 144 | –
14 | CC(C)c1ccc(C(=O)c2cc(O)c(O)c([N+](=O)[O-])c2)cc1 [RO0615928] | 129 | –
15 | Cc1ccc(C(=O)c2cc(O)c(O)c(S(=O)(=O)C(F)(F)F)c2)cc1 [RO0616411] | 338 | –
16 | Cc1ccc(C(=O)C(=O)c2cc(O)c(O)c([N+](=O)[O-])c2)cc1 [RO0619291] | 128 | –
17 | COC(=O)/C=C/c1cccc(C(=O)c2cc(O)c(O)c([N+](=O)[O-])c2)c1 [RO0619973] | 258 | –
18 | CCCNC(=O)c1ccc(C(=O)c2cc(O)c(O)c([N+](=O)[O-])c2)cc1 [RO0620570] | 347 | –
19 | CCN(CC)C(=O)c1ccc(C(=O)c2cc(O)c(O)c([N+](=O)[O-])c2)cc1 [RO0620573] | 438 | –
20 | COC(=O)c1cccc(C(=O)c2cc(O)c(O)c([N+](=O)[O-])c2)c1 [RO0620808] | 279 | –
21 | CCOC(=O)c1cccc(C(=O)c2cc(O)c(O)c([N+](=O)[O-])c2)c1 [RO0620809] | 244 | –
22 | C=CCOC(=O)c1cccc(C(=O)c2cc(O)c(O)c([N+](=O)[O-])c2)c1 [RO0620810] | 139 | –
23 | O=C(NCC1CC1)c1cccc(C(=O)c2cc(O)c(O)c([N+](=O)[O-])c2)c1 [RO0621004] | 363 | –
24 | CCCNC(=O)c1cccc(C(=O)c2cc(O)c(O)c([N+](=O)[O-])c2)c1 [RO0621005] | 422 | –

Row | SMILES | IC50 [1] [µM] | further results
25 | CCCCNC(=O)c1cccc(C(=O)c2cc(O)c(O)c([N+](=O)[O-])c2)c1 [RO0621006] | 283 | –
26 | CC(C)OC(=O)c1cccc(C(=O)c2cc(O)c(O)c([N+](=O)[O-])c2)c1 [RO0621109] | 156 | –
27 | CCN(CC)C(=O)c1cccc(C(=O)c2cc(O)c(O)c([N+](=O)[O-])c2)c1 [RO0621115] | 229 | –
28 | CCCN(CCC)C(=O)c1cccc(C(=O)c2cc(O)c(O)c([N+](=O)[O-])c2)c1 [RO0621116] | 173 | –
29 | O=C(C(=O)c1cc(O)c(O)c([N+](=O)[O-])c1)c1ccccc1 [RO0621161] | 153 | –
30 | CC(O)CCOC(=O)c1cccc(C(=O)c2cc(O)c(O)c([N+](=O)[O-])c2)c1 (stereo not drawn) [RO0621239] | 192 | –
31 | COC(=O)c1ccc(C(=O)c2cc(O)c(O)c([N+](=O)[O-])c2)cc1 [RO0621265] | 330 | –
32 | O=C(OCCC(O)C(F)(F)F)c1cccc(C(=O)c2cc(O)c(O)c([N+](=O)[O-])c2)c1 (stereo not drawn) [RO0622624] | 135 | –
33 | O=C(c1cccc(CO)c1)c1cc(O)c(O)c([N+](=O)[O-])c1 [RO0623430] | 446 | –
34 | COCCOCc1ccc(C(=O)c2cc(O)c(O)c([N+](=O)[O-])c2)cc1 [RO0624122] | 289 | –
35 | CC(C)(C)COC(=O)c1cccc(C(=O)c2cc(O)c(O)c([N+](=O)[O-])c2)c1 [RO0626777] | 206 | –
36 | CCCCOC(=O)c1cccc(C(=O)c2cc(O)c(O)c([N+](=O)[O-])c2)c1 [RO0626778] | 117 | –
37 | O=C(NC1CCCCC1)c1cccc(C(=O)c2cc(O)c(O)c([N+](=O)[O-])c2)c1 [RO0626783] | 430 | –
38 | O=C(NCc1ccccc1)c1cccc(C(=O)c2cc(O)c(O)c([N+](=O)[O-])c2)c1 [RO0626786] | 356 | –
39 | CCCN(CCC)C(=O)c1c(Br)cc(O)c(O)c1[N+](=O)[O-] [RO0627603] | 285 | –
40 | CC(=O)C(=Cc1cc(O)c(O)c([N+](=O)[O-])c1)C(C)=O [compound 1, Nitecapone, reference compound] | – | IC50 [2]: no inhibition; IC50 (LecA inhibition, competitive binding assay (FP), tested up to 1.5 mM, n ≥ 2, listed as Nitecapone): inactive
41 | CCN(CC)C(=O)/C(C#N)=C/c1cc(O)c(O)c([N+](=O)[O-])c1 [compound 2, Entacapone, reference compound] | – | IC50 [2]: no inhibition; IC50 (LecA inhibition, competitive binding assay (FP), tested up to 1.5 mM, n ≥ 2, listed as Entacapone): inactive
42 | Cc1c(Cl)c(C)[n+]([O-])c(Cl)c1-c1noc(-c2cc(O)c(O)c([N+](=O)[O-])c2)n1 [compound 3, Opicapone, reference compound] | – | IC50 (IC50, LecA inhibition, competitive binding assay (FP), tested up to 1.5 mM, n ≥ 2): 842 ± 134 µM
43 | Cc1c(C(=O)c2cc(O)c(O)c([N+](=O)[O-])c2)[nH]c2ccc(Br)cc12 [compound 30] | 43 | IC50 [3]: 59 µM
44 | O=C(OCc1ccccc1)c1ccc(C(=O)c2cc(O)c(O)c([N+](=O)[O-])c2)cc1 [compound 31] | 47 | IC50 [3]: 17 µM; IC50 [4]: 16 µM
45 | C=CCOC(=O)c1ccc(C(=O)c2cc(O)c(O)c([N+](=O)[O-])c2)cc1 [compound 32] | 56 | IC50 [3]: 49 µM; IC50 [4]: 50 µM
46 | CCCCCOC(=O)c1cccc(C(=O)c2cc(O)c(O)c([N+](=O)[O-])c2)c1 [compound 34] | 63 | IC50 [3]: 88 µM; IC50 [4]: 61 µM
47 | CCCCCOC(=O)c1ccc(C(=O)c2cc(O)c(O)c([N+](=O)[O-])c2)cc1 [compound 35] | 72 | IC50 [4]: 66 µM
